Results from patent US20250127698A1, “Hair Perming Compositions With Amine Derivatives” (ELC Management LLC, priority 2023, published 2025).

Assays:
[1] = Curl efficiency after hair curling treatment; design: species or system human; settings: Type 1 Caucasian hair; for Curl Efficiency (%) After Treatment, 1 Wash and Dry: 1 wash with 5% SDS solution; for Curl Efficiency (%) After Treatment, 8 Washes and Dry: equivalent of 8 washes with 5% SDS solution
From the text: (§1) The ability of each test composition to curl hair was established by measuring “curl efficiency”. Curl efficiency is a measure of curl tightness following a hair curling treatment. The higher the efficiency, the tighter the curl. We used a well-known method of measuring curl efficiency, wherein a portion of untreated straight hair of known length, Lu, is secured on an arrangement of pegs to form a sine wave pattern of five cycles, crest-to-crest. Because the pegs are fixed, the ideal length, Li, of the portion of hair when arranged into the five-cycle wave pattern, is known. Starting with a straight swatch of hair of length Lu, the ideal outcome would be a curled swatch of hair with a length of Li. Curl efficiency is a measure of how closely the ideal is attained.
(§2) Two types of hair samples were tested for curling; mixed sourced virgin Type 1Caucasian hair, and single sourced virgin Type 1 hair. For straightening, mixed sourced virgin Type 2C (very wavy) Caucasian hair was tested. Hair straightening test samples were prepared by collecting hair fibers into tresses, and clamping each tress at both ends. For those test samples that were to undergo a straightening treatment, the length, Lu, was measured between two previously determined points.
(§3) Each hair tress was wetted (reverse osmosis water). For curling, each hair tress was wound along a peg board to form a sine wave pattern of five cycles, as described above. For straightening, each hair tress was held on a board in a straight conformation, tension was applied, and the ends of the tress were secured. All test samples (curling or straightening) were allowed to dry before proceeding. Each board with a hair tress test sample was dipped for 10 seconds into a beaker with one of the hair perming compositions. After removing a board from solution, it was immediately placed in an oven for 20 minutes at 37° C. (normal body temperature). The test sample was removed from the oven, and rinsed for five minutes with 37° C. water, being careful not to allow the running water to fall directly on the hair tresses. After blotting with a paper towel, test samples were allowed to rest for five minutes at room temperature, for air oxidation to occur. The hair straightening test samples were removed from the board, blow dried and flat ironed at 200° C., which is commonly done in salon practice. At this point, the ideal length, Li, was measured between the two previously determined point mentioned above. Thereafter, each sample was rebound to the board.
(§4) Each bound hair tress was submerged for ten seconds in a 2% solution of H2O2 to neutralize the reducing agent and promote S-S bond formation, so that the hair tress would retain a desired shape (sine wave pattern or straight) when removed from the board. Each hair tress rested at room temperature for about five minutes, then was rinsed under 37° C. running water for five minutes, and subsequently blotted with a paper towel. Each test sample hair tress was removed from the board, laid on a flat surface, and allowed to dry. The fully permed dry tresses were washed in 5% SDS (sodium dodecyl sulfate) solution (which simulates salon practice) and allowed to dry overnight.
(§5) For the curling test samples, the length, Lt, of five waves, crest to crest was measured. For the straightening test samples, the final length, Lt, was measured between the two previously determined points. At this point, differential scanning calorimetry (DSC) measurements were made on a portion of each hair tress test sample. Also, for longevity performance, each tress was subjected to the equivalent of eight hand washings in 5% SDS solution using the GyroWash color fastness to laundering tester, and allowed to dry, before another length measurement, Lt, was made.
(§6) Curl efficiencies were computed using Equation 1.
(§7) [formula] • Lu=length of the untreated hair tress • Lt=crest-to-crest length of the five-wave portion of the treated hair tress • Li=ideal length of curled hair […]

[2] = DSC keratin denaturation temperature change after curling treatment; design: species or system human; settings: for ΔT (TUntreated−TAlkalizer, keratin denaturation temperature): Type 1 Chinese hair after curling treatment, larger ΔT indicates more damage; for damage to hair (in words): hair curling treatment, Type 1 Chinese hair
From the text: (§8) This damage occurs at the level of keratin proteins.
(§9) Untreated hair was used as a control.
(§10) A larger ΔT indicates more damage.

[3] = DSC keratin denaturation temperature change after straightening treatment; design: species or system human; settings: for ΔT (TUntreated−TAlkalizer, keratin denaturation temperature): Type 3 Caucasian hair after straightening, larger ΔT indicates more damage; for damage to hair (in words): hair straightening treatment, Type 3 Caucasian hair
From the text: as §8, §9, §10

[4] = Curl efficiency after hair curling treatment; design: species or system human; % Change In Curl Efficiency From 1 to 8 Washes: concentration or dose not given beside the values; settings: Type 1 Chinese hair; for Curl Efficiency (%) After Treatment, 1 Wash and Dry: 1 wash with 5% SDS solution; for Curl Efficiency (%) After Treatment, 8 Washes and Dry: equivalent of 8 washes with 5% SDS solution
From the text: as §1, §2, §3, §4, §5, §6, §7

[5] = DSC keratin denaturation temperature change after curling treatment; settings: for ΔT (TUntreated−TAlkalizer, keratin denaturation temperature): Type 1 Caucasian hair after curling treatment, larger ΔT indicates more damage; for damage to hair (in words): hair curling treatment, Type 1 Caucasian hair
Protocol: It is known that the denaturation of keratin in hair can be detected by differential scanning calorimetry (DSC). DSC is a thermal analysis technique used to measure phase transition temperatures and heat of transformation (enthalpy) for endothermic and exothermic reactions.
For all of the test samples discussed above, DSC measurements were performed using the Discovery DSC 2500 (from TA Instruments. New Castle, DE). The experiments were carried out over a temperature range of 40° C. to 200° C., with a scan rate of 5° C./min under nitrogen protection. DSC samples were prepared by cutting tress samples into pieces (0.1 to 1.0 mm in size) and weighing. The hair samples were mixed with deionized water, and then sealed in high volume pans for at least 6 hours before measuring. The phase transition temperature (keratin denaturation temperature) of each hair sample was analyzed using TRIOS software (Discovery DSC 2500). Untreated hair was used as a control.
Each hair sample was analyzed at least twice, and the average temperature was obtained for data analysis. This was subtracted from the denaturation temperature of the control sample (ΔT=TUntreated−TAlkalizer). A larger ΔT indicates more damage.

[6] = pH of hair perming composition; type: physicochemical; settings: for pH: hair perming composition: base of Table 2 (7.50% thioglycolic acid) plus alkalizer, same molar percentage of alkalizer
From the text: For testing, we prepared the hair perming compositions shown by Tables 2 and 3, below. […] All compositions contain the same molar percentage of alkalizer, the water content being adjusted accordingly.

[7] = Straightening efficiency after hair straightening treatment; design: species or system human; settings: Type 2C Caucasian hair; for Straightening Efficiency (%) After Treatment, 1 Wash and Dry: 1 wash with 5% SDS solution
From the text: The ability of each test composition to straighten curly hair was established by measuring “straightening efficiency”. Straightening efficiency represents the degree to which curly hair is made straight by a hair straightening treatment. We start with a curly, untreated hair tress of length Lu. The tress has an ideal straight length of Li, which is the length of the untreated tress when flat ironed to its maximum, straight length. After treatment the tress has a length of Lt. Straightening efficiency is the gain in length as a percentage of the maximum possible gain in length. […] A straightening efficiency of 100% means that the treated tress retained the maximum possible length.
as §2, §3, §4, §5
Straightening efficiencies were computed using Equation 2.
[formula] • Lu=length of the untreated hair tress • Lt=length of treated hair tress • Li=ideal length of straightened hair
(Li−Lu) represents the maximum possible increase in length as a result of treatment. […]

SMILES | % Change In Curl Efficiency From 1 to 8 Washes [1] [%] | Curl Efficiency (%) After Treatment, 1 Wash and Dry [1] [%] | Curl Efficiency (%) After Treatment, 8 Washes and Dry [1] [%] | ΔT (TUntreated−TAlkalizer, keratin denaturation temperature) [2] [C. °] | ΔT (TUntreated−TAlkalizer, keratin denaturation temperature) [3] [°C] | % Change In Curl Efficiency From 1 to 8 Washes [4] [%] | Curl Efficiency (%) After Treatment, 1 Wash and Dry [4] [%] | Curl Efficiency (%) After Treatment, 8 Washes and Dry [4] [%] | ΔT (TUntreated−TAlkalizer, keratin denaturation temperature) [5] [°C] | pH of alkalizer composition ([6]; Table 7) | pH of alkalizer composition ([6]; Table 8) | pH of alkalizer composition ([6]; Table 9) | pH [6] | Straightening Efficiency (%) After Treatment, 1 Wash and Dry [7] [%] | damage to hair (in words) [2] | damage to hair (in words) [3] | damage to hair (in words) [5] | further results
CCC(N)(CO)CO [AEPD, 2-Amino-2-ethyl-1,3-propanediol] | −6.40 | 43.93 | 41.12 | 1.31 | 1.13 | −15.09 | 53.93 | 45.79 | 2.36 | 9.09 | 9.09 | 8.98 | 9.09 | 94.70 |  |  |  | 
NC(CO)(CO)CO [Tris, Tromethamine] |  |  |  | −0.77 | 0.07 |  |  |  | 1.11 | 8.36 | 8.36 | 8.36 | 8.36 |  | less damage than ammonium hydroxide | less damage than ammonium hydroxide | less damage than ammonium hydroxide | straightening (in words) [7]: performed better than ammonium hydroxide and MEA, but not as well as AMP
NC(CO)CO [Serinol, 2-Amino-1,3-propanediol] | −8.15 | 45.79 | 42.06 | 0.62 | 0.50 | −14.82 | 50.47 | 42.99 | 1.76 | 8.68 | 8.68 | 8.68 | 8.68 | 88.24 | less damage than ammonium hydroxide | less damage than ammonium hydroxide | less damage than ammonium hydroxide | 
NCCO [MEA, Monoethanolamine, reference compound] | −7.41 | 50.47 | 46.73 |  |  | −13.43 | 64.77 | 56.07 |  | 9.40 | 9.40 | 9.40 | 9.40 | 65.38 |  |  |  | 
CN(C)C(C)(C)CO [DMAMP, 2-Dimethylamino-2-methyl-1-propanol] | −20.91 | 44.86 | 35.48 | 5.78 | 1.43 | −17.06 | 58.60 | 48.60 | 6.06 | 10.18 | 10.18 | 10.18 | 10.18 | 93.75 | caused the most damage | comparatively little damage | almost as much damage as NaOH | performance in curling, curl retention and degree of damage (FIG. 1, in words) [1]: did not perform as well as ammonium hydroxide, AMP or MEA; performance in curling, curl retention and degree of damage (FIG. 2, in words) [4]: did not perform as well as ammonium hydroxide, AMP or MEA; performance in straightening and degree of damage versus ammonium hydroxide, AMP and MEA (FIG. 3, in words) [7]: did perform well
[Na+].[OH-] [NaOH, reference compound] | −17.64 | 47.66 | 39.25 | 5.60 | 4.60 | −19.92 | 54.86 | 43.93 | 6.34 | 10.56 | 10.56 | 10.56 | 10.56 | 65.71 |  |  |  | 
N.O [Ammonium hydroxide, reference compound] |  |  |  | 0.80 |  |  |  |  |  | 9.14 | 9.14 | 9.14 | 9.14 |  |  |  |  | 
CC(N)(CO)CO [AMPD, 2-Amino-2-methyl-1,3-propanediol] |  |  |  | 0.68 | 0.32 |  |  |  | 1.66 | 9.09 | 9.04 | 9.04 | 9.04 |  | less damage than ammonium hydroxide |  |  | straightening (in words) [7]: performed better than ammonium hydroxide and MEA, but not as well as AMP
